Measured values published in ChEMBL document CHEMBL4368860, “Structure activity relationship of 2-arylalkynyl-adenine derivatives as human A3 adenosine receptor antagonists” (Medchemcomm, 2018).
Each block holds one compound with its values, some of them ahead of it.

Assays:
[1] = Displacement of [3H]DPCPX from pig A1 receptor; design: species or system Sus scrofa
[2] = target: T1, Adenosine receptor A2a (Homo sapiens, UniProt P29274); assay: Displacement of [3H]ZM241385 from human A2A receptor expressed in HEK293 cell membranes
T1 sequence (P29274 whole entry): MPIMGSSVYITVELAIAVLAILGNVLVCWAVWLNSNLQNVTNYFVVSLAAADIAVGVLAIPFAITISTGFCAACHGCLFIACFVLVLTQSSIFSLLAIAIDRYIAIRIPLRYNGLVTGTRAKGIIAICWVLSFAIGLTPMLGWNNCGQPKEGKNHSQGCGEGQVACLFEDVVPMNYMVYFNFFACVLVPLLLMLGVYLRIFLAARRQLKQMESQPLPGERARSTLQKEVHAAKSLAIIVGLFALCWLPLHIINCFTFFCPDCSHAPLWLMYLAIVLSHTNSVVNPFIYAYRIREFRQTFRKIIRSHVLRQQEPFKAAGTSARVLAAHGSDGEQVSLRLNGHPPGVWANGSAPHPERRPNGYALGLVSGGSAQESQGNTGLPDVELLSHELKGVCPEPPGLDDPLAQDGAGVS

[3] = target: T1, Adenosine receptor A2a; assay: Displacement of [3H]ZM241385 from human A2A receptor expressed in HEK293 cell membranes at 10 uM; conditions: HEK293 cell membranes expressing human A2A receptor, probe [3H]ZM241385
[4] = target: T2, Adenosine receptor A1 (Homo sapiens) (UniProt P30542); assay: Displacement of [3H]DPCPX from recombinant human A1 receptor expressed in CHO cell membranes at 10 uM
T2 sequence (whole entry): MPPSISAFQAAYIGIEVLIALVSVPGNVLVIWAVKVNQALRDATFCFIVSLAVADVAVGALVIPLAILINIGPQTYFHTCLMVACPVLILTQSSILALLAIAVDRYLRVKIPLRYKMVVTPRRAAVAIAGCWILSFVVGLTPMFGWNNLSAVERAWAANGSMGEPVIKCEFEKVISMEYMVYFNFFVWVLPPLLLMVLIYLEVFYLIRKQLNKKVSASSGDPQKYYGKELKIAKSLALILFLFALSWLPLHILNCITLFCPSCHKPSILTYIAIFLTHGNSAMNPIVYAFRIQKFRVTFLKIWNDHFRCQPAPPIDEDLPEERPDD

[5] = target: Adenosine receptor A3 (Homo sapiens) (UniProt P0DMS8); assay: Displacement of [125I]I-AB-MECA from recombinant human adenosine A3 receptor expressed in CHO cell membranes at 10 uM
[6] = target: Alpha-2C adrenergic receptor (Homo sapiens, UniProt P18825); assay: Displacement of [3H]Rauwolscine from human alpha 2C adrenergic receptor expressed in MDCK cells by radioligand binding assay; format: cell-based
Chain of Alpha-2C adrenergic receptor (P18825 whole entry): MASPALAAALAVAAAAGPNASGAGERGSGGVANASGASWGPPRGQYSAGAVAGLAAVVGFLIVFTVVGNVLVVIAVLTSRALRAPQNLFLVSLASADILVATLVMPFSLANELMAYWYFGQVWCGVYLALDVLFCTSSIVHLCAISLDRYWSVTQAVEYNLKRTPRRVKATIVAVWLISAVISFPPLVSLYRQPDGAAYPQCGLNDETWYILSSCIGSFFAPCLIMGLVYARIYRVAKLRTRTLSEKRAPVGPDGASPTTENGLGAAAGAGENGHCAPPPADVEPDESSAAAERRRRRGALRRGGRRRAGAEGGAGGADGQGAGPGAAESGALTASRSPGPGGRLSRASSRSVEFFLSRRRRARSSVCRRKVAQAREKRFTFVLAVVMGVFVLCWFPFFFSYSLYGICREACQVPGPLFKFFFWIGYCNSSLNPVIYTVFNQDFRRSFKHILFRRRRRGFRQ

[7] = target: 5-hydroxytryptamine receptor 2B (Homo sapiens, UniProt P41595); assay: Displacement of [3H]-LSD from human 5-HT2B receptor expressed in HEK cell by radioligand binding assay
Chain of 5-hydroxytryptamine receptor 2B (P41595 whole entry): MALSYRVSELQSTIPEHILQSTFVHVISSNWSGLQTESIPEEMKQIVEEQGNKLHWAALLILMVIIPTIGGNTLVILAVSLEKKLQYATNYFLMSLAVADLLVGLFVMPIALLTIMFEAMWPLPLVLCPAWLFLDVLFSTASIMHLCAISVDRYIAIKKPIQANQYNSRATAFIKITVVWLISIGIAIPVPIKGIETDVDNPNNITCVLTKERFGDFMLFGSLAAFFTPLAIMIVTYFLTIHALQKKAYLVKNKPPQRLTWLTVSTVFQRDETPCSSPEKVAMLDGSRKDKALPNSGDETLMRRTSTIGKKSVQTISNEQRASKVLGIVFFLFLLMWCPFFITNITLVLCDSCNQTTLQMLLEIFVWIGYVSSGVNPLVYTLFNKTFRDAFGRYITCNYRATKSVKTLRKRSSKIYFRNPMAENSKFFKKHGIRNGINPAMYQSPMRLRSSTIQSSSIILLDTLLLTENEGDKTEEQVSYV

[8] = target: T3, Adenosine receptor A1 (Homo sapiens, UniProt P30542); assay: Displacement of [3H]DPCPX from recombinant human A1 receptor expressed in CHO cell membranes
T3 sequence (P30542 whole entry): T2 sequence (whole entry)

[9] = target: T4, Adenosine receptor A3 (Homo sapiens, UniProt P0DMS8); assay: Displacement of [125I]I-AB-MECA from recombinant human adenosine A3 receptor expressed in CHO cell membranes
T4 sequence (P0DMS8 whole entry): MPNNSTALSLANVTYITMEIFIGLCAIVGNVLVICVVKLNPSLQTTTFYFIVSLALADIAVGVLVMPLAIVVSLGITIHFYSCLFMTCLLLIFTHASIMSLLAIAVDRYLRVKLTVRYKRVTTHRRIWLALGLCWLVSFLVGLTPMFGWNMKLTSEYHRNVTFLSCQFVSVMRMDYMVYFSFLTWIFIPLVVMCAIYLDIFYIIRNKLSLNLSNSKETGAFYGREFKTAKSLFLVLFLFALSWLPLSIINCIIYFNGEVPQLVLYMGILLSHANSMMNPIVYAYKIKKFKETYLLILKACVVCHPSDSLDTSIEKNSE

[10] = target: T5, Adenosine receptor A3 (Mus musculus) (UniProt Q61618); assay: Displacement of [125I]I-AB-MECA from recombinant mouse adenosine A3 receptor expressed in HEK293 cell membranes at 10 uM
T5 sequence (whole entry): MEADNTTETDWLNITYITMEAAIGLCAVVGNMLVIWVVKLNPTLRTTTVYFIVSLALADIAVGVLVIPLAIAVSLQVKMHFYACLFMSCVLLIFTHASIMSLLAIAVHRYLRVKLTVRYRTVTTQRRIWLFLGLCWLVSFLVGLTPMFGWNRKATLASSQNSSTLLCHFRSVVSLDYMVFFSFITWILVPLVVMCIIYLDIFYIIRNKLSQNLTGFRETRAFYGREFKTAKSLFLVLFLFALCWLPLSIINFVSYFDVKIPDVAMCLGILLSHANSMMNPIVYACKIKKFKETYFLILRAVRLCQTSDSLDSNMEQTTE

[11] = target: Translocator protein (Homo sapiens, UniProt P30536); assay: Displacement of [3H]PK11195 from human TSPO after 90 mins by scintillation counting method
Chain of Translocator protein (P30536 whole entry): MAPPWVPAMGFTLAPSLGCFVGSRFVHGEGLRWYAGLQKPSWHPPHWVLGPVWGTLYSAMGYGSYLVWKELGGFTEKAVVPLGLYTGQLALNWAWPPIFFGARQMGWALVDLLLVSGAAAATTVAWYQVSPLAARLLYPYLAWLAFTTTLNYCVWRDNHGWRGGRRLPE

[12] = target: T6, Sigma intracellular receptor 2 (Rattus norvegicus, UniProt Q5U3Y7); assay: Displacement of [3H]-DTG from sigma 2 receptor in rat PC12 cells by radioligand binding assay; format: cell-based
T6 sequence (Q5U3Y7 whole entry): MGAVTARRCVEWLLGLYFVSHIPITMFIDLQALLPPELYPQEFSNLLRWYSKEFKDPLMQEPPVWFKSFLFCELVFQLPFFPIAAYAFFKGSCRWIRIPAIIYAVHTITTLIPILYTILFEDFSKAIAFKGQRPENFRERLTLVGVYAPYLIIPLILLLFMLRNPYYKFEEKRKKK

[13] = target: Sigma non-opioid intracellular receptor 1 (Cavia porcellus, UniProt Q60492); assay: Displacement of [3H]-(+)-pentazocine from sigma-1 receptor in guinea pig by radioligand binding assay
Chain of Sigma non-opioid intracellular receptor 1 (Q60492 whole entry): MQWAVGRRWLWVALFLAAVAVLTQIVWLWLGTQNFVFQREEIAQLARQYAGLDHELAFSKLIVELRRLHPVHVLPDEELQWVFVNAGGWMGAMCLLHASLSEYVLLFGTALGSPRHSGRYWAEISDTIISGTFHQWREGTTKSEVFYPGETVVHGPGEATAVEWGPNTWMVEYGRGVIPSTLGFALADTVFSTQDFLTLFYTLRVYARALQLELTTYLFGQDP

[14] = target: Muscarinic acetylcholine receptor M4 (Homo sapiens, UniProt P08173); assay: Displacement of [3H]NMS from human M4 AChR expressed in CHO cell membranes after 90 mins by scintillation counting method
Chain of Muscarinic acetylcholine receptor M4 (P08173 whole entry): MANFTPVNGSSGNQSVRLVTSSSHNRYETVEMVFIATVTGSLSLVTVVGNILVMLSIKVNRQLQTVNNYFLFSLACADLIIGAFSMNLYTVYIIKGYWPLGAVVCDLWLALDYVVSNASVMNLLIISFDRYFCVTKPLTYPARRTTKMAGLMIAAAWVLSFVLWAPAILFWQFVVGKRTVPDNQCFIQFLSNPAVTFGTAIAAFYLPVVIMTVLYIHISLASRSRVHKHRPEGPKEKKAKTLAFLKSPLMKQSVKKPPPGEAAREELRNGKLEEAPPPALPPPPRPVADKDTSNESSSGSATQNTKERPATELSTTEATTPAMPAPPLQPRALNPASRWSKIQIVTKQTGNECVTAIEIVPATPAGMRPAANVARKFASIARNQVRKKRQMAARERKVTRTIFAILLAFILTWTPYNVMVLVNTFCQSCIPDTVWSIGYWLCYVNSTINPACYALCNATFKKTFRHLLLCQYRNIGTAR

[15] = target: Histamine H2 receptor (Homo sapiens, UniProt P25021); assay: Displacement of [3H]Cimetidine from human H2 receptor expressed in HEK cells after 90 mins by scintillation counting method; format: cell-based
Chain of Histamine H2 receptor (P25021 whole entry): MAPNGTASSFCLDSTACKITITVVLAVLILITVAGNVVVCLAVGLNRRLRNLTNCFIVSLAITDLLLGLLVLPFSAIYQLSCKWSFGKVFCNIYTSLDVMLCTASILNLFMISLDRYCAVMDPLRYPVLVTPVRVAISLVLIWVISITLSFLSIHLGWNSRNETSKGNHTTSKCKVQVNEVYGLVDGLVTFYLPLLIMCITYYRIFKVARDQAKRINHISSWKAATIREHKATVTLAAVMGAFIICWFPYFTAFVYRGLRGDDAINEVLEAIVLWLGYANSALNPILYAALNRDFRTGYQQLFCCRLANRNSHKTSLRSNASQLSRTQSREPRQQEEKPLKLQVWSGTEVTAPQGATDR

[16] = target: 5-hydroxytryptamine receptor 2C (Homo sapiens, UniProt P28335); assay: Displacement of [3H]-Mesulergine from human 5-HT2C receptor expressed in Flp-In-HEK cell by radioligand binding assay
Chain of 5-hydroxytryptamine receptor 2C (P28335 whole entry): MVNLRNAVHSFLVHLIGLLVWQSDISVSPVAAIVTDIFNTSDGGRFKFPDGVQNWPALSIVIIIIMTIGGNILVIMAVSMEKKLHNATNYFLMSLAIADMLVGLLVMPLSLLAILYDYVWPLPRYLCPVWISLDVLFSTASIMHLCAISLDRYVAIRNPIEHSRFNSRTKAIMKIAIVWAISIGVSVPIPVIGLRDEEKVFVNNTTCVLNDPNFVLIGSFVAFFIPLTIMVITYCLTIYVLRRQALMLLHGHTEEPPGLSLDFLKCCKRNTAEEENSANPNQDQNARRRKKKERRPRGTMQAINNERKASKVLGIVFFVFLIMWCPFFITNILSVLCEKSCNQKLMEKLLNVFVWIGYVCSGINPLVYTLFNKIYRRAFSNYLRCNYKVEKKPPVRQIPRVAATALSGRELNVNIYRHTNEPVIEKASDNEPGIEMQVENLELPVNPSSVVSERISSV

[17] = target: T7, Adenosine receptor A1 (Rattus norvegicus, UniProt P25099); assay: Displacement of [3H]DPCPX from rat A1 receptor
T7 sequence (P25099 whole entry): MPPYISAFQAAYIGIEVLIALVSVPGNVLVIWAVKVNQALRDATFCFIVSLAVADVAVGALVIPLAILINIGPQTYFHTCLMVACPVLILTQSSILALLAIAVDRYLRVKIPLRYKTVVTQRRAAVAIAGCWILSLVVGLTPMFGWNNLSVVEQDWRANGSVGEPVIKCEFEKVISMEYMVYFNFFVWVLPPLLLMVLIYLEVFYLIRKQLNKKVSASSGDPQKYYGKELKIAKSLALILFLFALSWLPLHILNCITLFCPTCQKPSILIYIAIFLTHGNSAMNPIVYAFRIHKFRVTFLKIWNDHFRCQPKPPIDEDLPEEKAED

[18] = target: Adenosine receptor A2a (Rattus norvegicus, UniProt P30543); assay: Displacement of [3H]ZM241385 from rat A2A receptor
Chain of Adenosine receptor A2a (Rattus norvegicus, UniProt P30543) (P30543 whole entry): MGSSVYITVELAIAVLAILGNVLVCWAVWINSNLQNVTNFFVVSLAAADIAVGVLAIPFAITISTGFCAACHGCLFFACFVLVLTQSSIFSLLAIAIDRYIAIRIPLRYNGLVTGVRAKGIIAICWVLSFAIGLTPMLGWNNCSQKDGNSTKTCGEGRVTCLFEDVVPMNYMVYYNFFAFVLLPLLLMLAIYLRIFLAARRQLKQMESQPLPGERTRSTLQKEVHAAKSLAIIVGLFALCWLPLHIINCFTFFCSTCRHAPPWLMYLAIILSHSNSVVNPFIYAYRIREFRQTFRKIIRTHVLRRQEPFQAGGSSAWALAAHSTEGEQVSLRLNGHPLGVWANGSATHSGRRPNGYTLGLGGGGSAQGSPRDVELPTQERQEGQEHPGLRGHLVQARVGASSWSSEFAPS

[19] = target: Alpha-2B adrenergic receptor (Homo sapiens, UniProt P18089); assay: Displacement of [3H]Rauwolscine from human alpha 2B adrenergic receptor expressed in HEK293T cells by radioligand binding assay; format: cell-based
Chain of Alpha-2B adrenergic receptor (P18089 whole entry): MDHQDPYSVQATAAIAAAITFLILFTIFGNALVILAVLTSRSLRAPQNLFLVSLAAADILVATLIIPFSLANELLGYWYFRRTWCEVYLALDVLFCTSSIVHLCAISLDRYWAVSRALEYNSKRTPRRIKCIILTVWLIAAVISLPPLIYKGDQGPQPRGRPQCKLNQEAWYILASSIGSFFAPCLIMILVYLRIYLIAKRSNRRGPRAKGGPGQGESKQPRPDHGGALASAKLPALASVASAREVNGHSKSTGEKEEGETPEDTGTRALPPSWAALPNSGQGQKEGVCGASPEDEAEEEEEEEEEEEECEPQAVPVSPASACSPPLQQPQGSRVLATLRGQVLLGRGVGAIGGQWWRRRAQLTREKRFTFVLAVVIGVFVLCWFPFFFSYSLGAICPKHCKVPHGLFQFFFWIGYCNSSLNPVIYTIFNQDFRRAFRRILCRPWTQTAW

[20] = target: T8, Adenosine receptor A2b (Homo sapiens, UniProt P29275); assay: Displacement of [3H]-MRS-1754 from human A2B receptor expressed in HEK293 cell membranes at 10 uM; conditions: HEK293 cell membranes expressing human A2B receptor, probe [3H]-MRS-1754
T8 sequence (P29275 whole entry): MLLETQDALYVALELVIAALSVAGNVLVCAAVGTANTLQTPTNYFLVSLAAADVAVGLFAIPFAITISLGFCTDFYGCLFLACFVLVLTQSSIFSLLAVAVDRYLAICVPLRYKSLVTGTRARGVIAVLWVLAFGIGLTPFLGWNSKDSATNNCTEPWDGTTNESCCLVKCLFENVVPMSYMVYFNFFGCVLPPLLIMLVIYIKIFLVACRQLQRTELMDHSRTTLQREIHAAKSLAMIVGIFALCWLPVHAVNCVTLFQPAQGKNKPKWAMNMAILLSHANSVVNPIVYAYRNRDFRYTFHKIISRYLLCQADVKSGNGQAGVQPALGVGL

inhibition [4]: 28% | inhibition at 10 µM [3]: 5% | inhibition [5]: 20% | Ki [6]: 3.52 µM | Ki [7]: 1210 nM
Structure (SMILES): Oc1ccc(CCNc2nc(C#Cc3ccc(Cl)s3)nc3[nH]cnc23)cc1O

Ki [8]: 4850 nM | inhibition at 10 µM [3]: 32% | Ki [9]: 116 nM | inhibition [10]: 16% | Ki [11]: 3.17 µM
Structure (SMILES): Cn1cnc2c(NCCc3ccccc3)nc(C#Cc3ccc(Cl)s3)nc21

inhibition [4]: 15% | inhibition at 10 µM [3]: -3% | Ki [9]: 6820 nM | Ki [12]: 370 nM | Ki [13]: 1390 nM
Structure (SMILES): COc1cc(CCNc2nc(C#Cc3ccc(Cl)s3)nc3[nH]cnc23)ccc1O

Ki [8]: 687 nM | Ki [2]: 2370 nM | Ki [9]: 32 nM | inhibition [10]: 20% | Ki [14]: 1740 nM
Structure (SMILES): Clc1ccc(C#Cc2nc(N[C@@H]3CCOC3)c3nc[nH]c3n2)s1

Ki [8]: 1490 nM | Ki [2]: 7070 nM | Ki [9]: 11.7 nM | Ki [7]: 1860 nM | Ki [16]: 1100 nM
Structure (SMILES): O[C@H]1CCC[C@@H]1Nc1nc(C#Cc2ccc(Cl)s2)nc2[nH]cnc12

Ki [8]: 2710 nM | inhibition at 10 µM [3]: 1% | Ki [9]: 128 nM | Ki [12]: 900 nM | Ki [19]: 1720 nM
Structure (SMILES): Clc1cccc(CNc2nc(C#Cc3ccc(Cl)s3)nc3[nH]cnc23)c1

inhibition [4]: 25% | Ki [2]: 1330 nM | Ki [9]: 79.2 nM | inhibition at 10 µM [20]: 6.2%
Structure (SMILES): CNc1nc(C#Cc2ccc(Cl)s2)nc2[nH]cnc12

The remaining lines, values behind:

Structure (SMILES): OC[C@H]1O[C@@H](n2cnc3c(N[C@@H]4CCOC4)ncnc32)[C@H](O)[C@@H]1O [TECADENOSON]
Ki [1]: 6.5 nM | Ki [2]: 2320 nM

Structure (SMILES): Fc1ccc(C#Cc2nc(NCc3cccc(Cl)c3)c3nc[nH]c3n2)cc1F
inhibition at 10 µM [3]: < 10%

Structure (SMILES): O=S(=O)(O)c1ccc(C#Cc2nc(NC(C3CC3)C3CC3)c3nc[nH]c3n2)cc1
inhibition [4]: 54% | inhibition at 10 µM [3]: 21% | inhibition [5]: 26%

Structure (SMILES): Clc1ccc(C#Cc2nc(N[C@H]3C[C@H]4CC[C@@H]3C4)c3nc[nH]c3n2)s1
Ki [8]: 1050 nM | inhibition at 10 µM [3]: 37% | Ki [9]: 20.6 nM | Ki [15]: 3.64 µM

Structure (SMILES): OC[C@H]1O[C@@H](n2cnc3c(NCCc4ccccc4)ncnc32)[C@H](O)[C@@H]1O
Ki [8]: 12.9 nM | Ki [17]: 24 nM | Ki [2]: 676 nM | Ki [18]: 161 nM | Ki [9]: 2.1 nM
